Assay [1] deals with Pseudomonas aeruginosa. In words: Antibacterial activity against Pseudomonas aeruginosa PAO1 biofilm cells assessed as reduction in bacterial growth after 2 days by resazurin dye based assay. As to conditions: PAO1, 48 h. A general note: The colour change of resazurin is a common sign of viable cells or microbes.
Assay [2] deals with Pseudomonas aeruginosa. In words: Antibacterial activity against Pseudomonas aeruginosa PAO1 infected in Caenorhabditis elegans N2 strain assessed as increase in Caenorhabditis elegans survival rate at 0.25 ug/ml after 120 hrs relative to control. It counts as functional. Conditions: dose 0.25 µg/ml.
In assay [3] the test system is Pseudomonas aeruginosa. In words: Ratio of MIC for antibacterial activity against Pseudomonas aeruginosa PAO1 biofilm cells to antibacterial activity against Pseudomonas aeruginosa PAO1 planktonic cells. Type of assay: functional.
Assay [4] relates to Pseudomonas aeruginosa. In words: Antibacterial activity against Pseudomonas aeruginosa PAO1 infected in Caenorhabditis elegans N2 strain assessed as increase in Caenorhabditis elegans survival rate at 0.25 ug/ml up to 240 hrs relative to control. It counts as functional. Conditions: dose 0.25 µg/ml; time hrs <=240.
Assay [5] concerns Pseudomonas aeruginosa. In words: Antibacterial activity against Pseudomonas aeruginosa PAO1 planktonic cells assessed as reduction in bacterial growth after 18 hrs by resazurin dye based assay. As to conditions: PAO1, 18 h.
In assay [6] the test system is Pseudomonas aeruginosa. In words: Antibacterial activity against Pseudomonas aeruginosa PAO1 infected in Caenorhabditis elegans N2 strain assessed as reduction in bacterial growth at 0.25 ug/ml after 120 hrs. As to conditions: dose 0.25 µg/ml. Type of assay: functional, organism-based.
Assay [7] concerns Chromobacterium violaceum. In words: Inhibition of quorum sensing in Chromobacterium violaceum CV026 mini-Tn5 mutant at 2.5 to […] after 12 hrs in presence of C6-HSL.
Assay [8] in a line: Inhibition of quorum sensing in Chromobacterium violaceum CV026 mini-Tn5 mutant after 12 hrs in presence of C6-HSL.
For assay [9], the system named is Chromobacterium violaceum. In words: Antibacterial activity against Chromobacterium violaceum CV026 mini-Tn5 mutant. Type of assay: functional, organism-based.
The subject of assay [10] is Pseudomonas aeruginosa. In words: Antibacterial activity against Pseudomonas aeruginosa PAO1 infected in Caenorhabditis elegans N2 strain assessed as reduction in bacterial growth at 162.5 uM after 120 hrs. It counts as functional, organism-based.
Assay [11] concerns Pseudomonas aeruginosa PAO1. In words: Inhibition of quorum sensing RhlAB in Pseudomonas aeruginosa PAO1 assessed as reduction in rhamnolipid level at 162.5 uM after 48 hrs by sulfuric acid-orcinol method relative to control.
The subject of assay [12] is Pseudomonas aeruginosa PAO1. In words: Inhibition of quorum sensing Rhl/PQS in Pseudomonas aeruginosa PAO1 assessed as reduction in pyocyanin level at 162.5 uM after 16 hrs relative to control.
The subject of assay [13] is Pseudomonas aeruginosa. In words: Inhibition of biofilm formation in Pseudomonas aeruginosa PAO1after 20 hrs by crystal violet assay. Type of assay: functional, organism-based. Conditions: PAO1, dose 10-325 µM.
Assay [14] relates to Pseudomonas aeruginosa PAO1. In words: Inhibition of quorum sensing system in Pseudomonas aeruginosa PAO1 assessed as reduction in swarming motility after 24 hrs. As to conditions: dose 20-162.5 µM.
For assay [15], the system named is Pseudomonas aeruginosa. In words: Antibacterial activity against Pseudomonas aeruginosa ATCC 27853 biofilm cells assessed as reduction in bacterial growth after 2 days by resazurin dye based assay. It counts as functional. As to conditions: ATCC 27853, 48 h, time 2 day.
Assay [16] relates to Pseudomonas aeruginosa PAO1. In words: Inhibition of quorum sensing las in Pseudomonas aeruginosa PAO1 assessed as reduction in protease level at 162.5 uM after 16 hrs.
The test system of assay [17] is Pseudomonas aeruginosa. In words: Synergistic antibacterial activity against Pseudomonas aeruginosa PAO1 biofilm cells assessed as fold change in MPEM MIC by checker board assay. It counts as functional.
Assay [18] has as its system Pseudomonas aeruginosa PAO1. In words: Inhibition of quorum sensing RhlAB in Pseudomonas aeruginosa PAO1 assessed as reduction in rhamnolipid level at 20 to 162.5 uM after 48 hrs by sulfuric acid-orcinol method. As to conditions: dose 20-162.5 µM.
Assay [19] deals with Pseudomonas aeruginosa PAO1. In words: Inhibition of quorum sensing las in Pseudomonas aeruginosa PAO1 assessed as reduction in protease level at 20 to 162.5 uM after 16 hrs. Conditions: dose 20-162.5 µM.
The subject of assay [20] is Pseudomonas aeruginosa. In words: Antibacterial activity against Pseudomonas aeruginosa PAO1 biofilm cells assessed as reduction in microbial growth at 10 uM after 6 days in presence of MPEM. Type of assay: functional, organism-based. As to conditions: time 6.0 day.
The subject of assay [21] is Pseudomonas aeruginosa. In words: Antibacterial activity against Pseudomonas aeruginosa PAO1 infected in Caenorhabditis elegans N2 strain assessed as increase in Caenorhabditis elegans survival rate at 162.5 uM up to 240 hrs relative to control. It counts as functional. As to conditions: time hrs <=240.
The test system of assay [22] is Pseudomonas aeruginosa PAO1. In words: Inhibition of quorum sensing lasB in Pseudomonas aeruginosa PAO1 assessed as reduction in elastase level at 20 to 162.5 uM after 16 hrs by elastin Congo red method. Conditions: dose 20-162.5 µM.
Assay [23] relates to Pseudomonas aeruginosa PAO1. In words: Inhibition of quorum sensing Rhl/PQS in Pseudomonas aeruginosa PAO1 assessed as reduction in pyocyanin level at 20 to 162.5 uM after 16 hrs. Conditions: dose 20-162.5 µM.
The subject of assay [24] is Pseudomonas aeruginosa. In words: Synergistic antibacterial activity against Pseudomonas aeruginosa PAO1 biofilm cells assessed as FICI in presence of MPEM by checker board assay. It counts as functional.
Assay [25] concerns Pseudomonas aeruginosa. In words: Antibacterial activity against Pseudomonas aeruginosa ATCC 27853 planktonic cells assessed as reduction in bacterial growth after 18 hrs by resazurin dye based assay. Type of assay: functional.
Assay [26] deals with Pseudomonas aeruginosa. In words: Antibacterial activity against Pseudomonas aeruginosa PAO1 biofilm cells assessed as reduction in microbial growth at 10 uM after 6 days. Type of assay: functional, organism-based. Conditions: time 6.0 day.
In assay [27] the test system is Pseudomonas aeruginosa. In words: Inhibition of biofilm formation in Pseudomonas aeruginosa PAO1 at 10 to 325 uM after 20 hrs by crystal violet assay relative to control. It counts as functional. As to conditions: dose 10-325 µM.
In assay [28] the test system is Pseudomonas aeruginosa. In words: Inhibition of biofilm formation in Pseudomonas aeruginosa PAO1 at 162.5 uM after 20 hrs by crystal violet assay relative to control. Type of assay: functional.
The test system of assay [29] is Pseudomonas aeruginosa PAO1. In words: Inhibition of quorum sensing lasB in Pseudomonas aeruginosa PAO1 assessed as reduction in elastase level at 162.5 uM after 16 hrs by elastin Congo red method relative to control.
For assay [30], the system named is Pseudomonas aeruginosa. In words: Antibacterial activity against Pseudomonas aeruginosa PAO1 infected in Caenorhabditis elegans N2 strain assessed as increase in Caenorhabditis elegans survival rate at 162.5 uM after 120 hrs relative to control. Type of assay: functional.
Assay [31] concerns Pseudomonas aeruginosa. In words: Antibacterial activity against Pseudomonas aeruginosa PAO1 biofilm cells assessed as reduction in microbial growth under sonication at 0.25 ug/ml after 6 days. Type of assay: functional, organism-based. As to conditions: dose 0.25 µg/ml, time 6.0 day.

This note sets out measurements from ChEMBL document CHEMBL4680247, “Design, synthesis, and biological evaluation of 3-amino-2-oxazolidinone derivatives as potent quorum-sensing inhibitors of Pseudomonas aeruginosa PAO1” (Eur J Med Chem, 2020).

Converted amounts (≈) assume the structure as drawn. The source made the active and inactive calls. The rule behind the calls is not given here.

Turning to `C[C@@H](O)[C@H]1C(=O)N2C(C(=O)O)=C(S[C@@H]3CN[C@H](C(=O)N(C)C)C3)[C@H](C)[C@H]12` [MEROPENEM], the results for the MIC in the assay on Pseudomonas aeruginosa [1] and in the assay on Pseudomonas aeruginosa [5] were 8 µg/mL (≈ 20.9 µM) and 0.25 µg/mL (≈ 0.652 µM), respectively. In addition, the Activity in the assay with Pseudomonas aeruginosa [2] is 13.33%; with Pseudomonas aeruginosa [4], 15.67%. For the same compound, the Ratio with Pseudomonas aeruginosa [3] was found to be 32. The outcome in the assay on Pseudomonas aeruginosa [6] was Active.
By inhibition is commonly meant the share of the control response that was lost under treatment. In general, IC50 refers to the concentration that inhibits the measured activity by half. For `O=C(CCCCCOc1ccc(Cl)cc1)NN1CCOC1=O`, in assay [7], the inhibition entry was “Active”. Further, the IC50 in assay [8] is 32.8 µM. In addition, the result in [9] was inactive.
On to `CC(C)(O/N=C(\C(=O)N[C@@H]1C(=O)N2C(C(=O)[O-])=C(C[n+]3ccccc3)CS[C@H]12)c1csc(N)n1)C(=O)O` [CEFTAZIDIME], for which the MIC with Pseudomonas aeruginosa [1] turned out to be 2 µg/mL (≈ 3.66 µM); in the assay with Pseudomonas aeruginosa [5], 1 µg/mL (≈ 1.83 µM).
With `O=C(CCCOc1ccc(F)cc1F)NN1CCOC1=O`, in assay [7], the inhibition result is “Active”. Moreover, in assay [8], the half-inhibitory concentration (IC50) was 19.6 µM. Also, in assay [9], the outcome was inactive.
Consider `O=C(O)c1cn(C2CC2)c2cc(N3CCNCC3)c(F)cc2c1=O` [CIPROFLOXACIN], for which the MIC with Pseudomonas aeruginosa [5] turned out to be 0.08 µg/mL (≈ 0.241 µM).
Take `O=C(CCCOc1cccc(F)c1)NN1CCOC1=O`: the inhibition entry in assay [7] was “Active”. Further, the IC50 in [8] turned out to be 15.5 µM. Besides, in assay [9], the result was inactive.
In the same order, the values of `O=C(CCCCOc1ccc(F)cc1)NN1CCOC1=O` are “Active”, 23.1 µM and “inactive”.
Taken in the same sequence, the figures for `O=C(CCCOc1cccc(Cl)c1)NN1CCOC1=O` were “Active”, 38.1 µM and “inactive”.
In the same order, the values of `O=C(CCCCOc1cccc(F)c1)NN1CCOC1=O` are “Active”, 63.6 µM and “inactive”.
Regarding `O=C(CCCSc1ccc(Cl)cc1)NN1CCOC1=O`, in assay [7], the inhibition result was “Active”. Further, the concentration for half-maximal inhibition (IC50) in assay [8] came to 6.84 µM. Besides, in [9], the outcome was inactive.
Taken in the same sequence, the figures for `O=C(CCCCOc1ccc(Cl)cc1)NN1CCOC1=O` were “Active”, 39.5 µM and “inactive”.
As for `O=C(CCCOc1ccc(F)cc1)NN1CCOC1=O`, the inhibition entry in assay [7] is “Active”. The concentration for half-maximal inhibition (IC50) in assay [8] is 11 µM. Further, the outcome in assay [9] was inactive.
For `O=C(CCCOc1ccccc1F)NN1CCOC1=O`, in [7], the inhibition entry was “Active”. For the same compound, in assay [8], the IC50 was determined as 40.9 µM. Further, in assay [9], the result was inactive.
As for `O=C(CCCCCCOc1ccc(Cl)cc1)NN1CCOC1=O`, the outcome in assay [9] was inactive.
Still for that read-out and setting: next, `O=C(CCCCCCOc1ccc(Br)cc1Br)NN1CCOC1=O`: “inactive”.
Consider `NC[C@H]1O[C@H](O[C@H]2[C@H](O)[C@@H](O[C@H]3O[C@H](CO)[C@@H](O)[C@H](N)[C@H]3O)[C@H](N)C[C@@H]2N)[C@H](N)C[C@@H]1O` [TOBRAMYCIN], for which the MIC in the assay on Pseudomonas aeruginosa [1] amounted to 8 µg/mL (≈ 17.1 µM); in the assay on Pseudomonas aeruginosa [5], 2 µg/mL (≈ 4.28 µM).
Regarding `CCCCCCCCCC(=O)N[C@H]1CCOC1=O`, in [8], the IC50 came out at 0.13 µM.
Regarding `O=C(CCCCCCOc1ccc(Br)cc1)NN1CCOC1=O`, in assay [9], the outcome was inactive.
The same measure, in the same setting: the entry for `O=C(CCCCCCOc1ccc([N+](=O)[O-])cc1)NN1CCOC1=O` is “inactive”.
Consider `O=C(CCCOc1cc(F)cc(F)c1)NN1CCOC1=O`, for which the inhibition result in assay [7] was “Active”. Moreover, in assay [8], the 50% inhibitory concentration (IC50) amounted to 61.6 µM. For the same compound, the result in [9] was inactive.
For the compound `O=C(CCCCCCSc1ccc(Cl)cc1)NN1CCOC1=O`, the outcome in assay [9] was inactive.
For the compound `O=C(CCCOc1ccc([N+](=O)[O-])cc1)NN1CCOC1=O`, in assay [7], the inhibition entry is “Active”. The IC50 in [8] came out at 21.3 µM. Further, the outcome in assay [9] was inactive.
As for `O=C(CCCOc1ccc(Br)cc1)NN1CCOC1=O`, the result in the assay with Pseudomonas aeruginosa [10], in the assay on Pseudomonas aeruginosa [20] and in the assay on Pseudomonas aeruginosa [31] was Active. In addition, the inhibition in [11] is 57.9%; in assay [12], 22.5%; in the assay on Pseudomonas aeruginosa [13] it was “Dose-dependent effect”; in assay [14], “Dose-dependent effect”; in [16] it was 14.9%; in [29], 16.2%. The MIC in the assay with Pseudomonas aeruginosa [1], in the assay with Pseudomonas aeruginosa [15], in the assay with Pseudomonas aeruginosa [25] and with Pseudomonas aeruginosa [5] was > 1110 µg/mL in each case. Also, the “fold change (FC)” value in the assay with Pseudomonas aeruginosa [17] came to 8. The inhibition entry in [18], in [19], in [7], in assay [22] and in [23] was “Active” throughout. Moreover, the Activity in the assay on Pseudomonas aeruginosa [21] is reported as 18.33%; in the assay with Pseudomonas aeruginosa [30] it was 16%. Also, the concentration for half-maximal inhibition (IC50) in assay [8] came out at 3.69 µM. Besides, the outcome (in [9]; in the assay with Pseudomonas aeruginosa [26]) was inactive. For the same compound, the “fractional inhibitory concentration index (FICI)” value with Pseudomonas aeruginosa [24] is reported as <0.5. For the same compound, in the assay on Pseudomonas aeruginosa [27], the “inhibition (INH)” value came to 17.67%. Moreover, in the assay on Pseudomonas aeruginosa [28], the inhibition at 162.5 µM was 40.4%.
Consider `NCC[C@H](O)C(=O)N[C@@H]1C[C@H](N)[C@@H](O[C@H]2O[C@H](CN)[C@@H](O)[C@H](O)[C@H]2O)[C@H](O)[C@H]1O[C@H]1O[C@H](CO)[C@@H](O)[C@H](N)[C@H]1O` [AMIKACIN], for which the MIC was found to be 16 µg/mL (≈ 27.3 µM) in the assay on Pseudomonas aeruginosa [1] and 4 µg/mL (≈ 6.83 µM) in the assay with Pseudomonas aeruginosa [5].
